Experimental data published in PubChem BioAssay (NCI).
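48-hour exposure; five concentrations; linearly interpolated endpoints. GI50 = concentration required for 50% inhibition of growth. At the TGI there is no net growth.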

How the values were obtained:
Experiment in all cases: NCI tumour cell line growth inhibition, 48 h
[1] = system: SK-OV-3 ovarian
[2] = system: HOP-62 NSCLC
[3] = system: NCI-H460 lung
[4] = system: MDA-MB-231 breast
[5] = system: SK-MEL-2 melanoma
[6] = system: U251 CNS
[7] = system: BT-549 breast
[8] = system: SF-268 CNS
[9] = system: 786-0 renal
[10] = system: HCC-2998 colon
[11] = system: K-562 leukemia

Row | Compound | TGI [1] [µM] | TGI [2] [µM] | TGI [3] [µM] | TGI [4] [µM] | TGI [5] [µM] | TGI [6] [µM] | TGI [7] [µM] | TGI [8] [µM] | TGI [9] [µM] | TGI [10] [µM] | TGI [11] [µM] | GI50 [8] [µM]
1 | N#Cc1cnc(N)nc1NCC1(CO)CC(CCc2ccccc2)C1 (centres undefined) | > 100 | > 100 | > 100 | > 100 | > 100 | > 100 | > 100 | > 100 | > 100 | > 100 | > 100 | –
2 | Cc1cc(S(=O)(=O)Nc2nc3ccccc3c(=O)n2N)c(S)cc1Cl | > 100 | 79.7 | > 100 | > 100 | > 100 | > 100 | > 100 | 40.1 | 81.6 | > 100 | > 100 | 7.23
3 | CO/N=C(\C)c1cccc(Nc2c3ccccc3nc3occc23)c1 | 36.4 | 20.2 | 23.7 | 26.1 | 15.5 | 38.6 | 48.8 | 31.8 | 29.7 | 20.4 | > 100 | –
4 | O=c1/c(=C/c2ccc(-c3ccc(Cl)cc3Cl)o2)sc2n1[C@@H](c1ccc(Cl)cc1)C=C(c1cc(F)c(Cl)cc1Cl)N=2 | 61.7 | 34.6 | > 100 | 59.2 | > 100 | > 100 | > 100 | > 100 | > 100 | 56.2 | > 100 | –
5 | C=CC(Cl)(CBr)CCC(Br)C(C)(C)Cl (centres undefined) | > 100 | 30.6 | 28 | 27.6 | 37.5 | 27.4 | 38.6 | 48.4 | 28.1 | 28.8 | 72.4 | –
6 | CCCCCCCCCCNC(=O)CCC(NC(=O)c1ccc(N(C)Cc2cnc3nc(N)nc(N)c3n2)cc1)C(=O)NCCCCCCCCCC (centres undefined) | 65.3 | > 95.7 | 13.1 | 11.3 | 30.4 | 14.1 | 26.3 | 40.2 | 13.5 | 48.6 | > 32.2 | –
7 | O=[N+]([O-])c1ccc(N/N=C/c2ccc(OCCCCCCCCCCCO)cc2)c([N+](=O)[O-])c1 | 11.6 | 19.6 | 12.1 | > 94.7 | 56.1 | 10.7 | 15.5 | 7.62 | 4 | 76.6 | 2.97 | –
8 | N#Cc1c(N)nc(Sc2ccccc2N)c(C#N)c1-c1ccc(Cl)cc1 | 40.6 | 17.2 | 58.6 | 35.7 | 18.2 | 24.5 | 33.2 | 23.8 | 42.7 | 36 | > 42 | –
9 | Nn1c(Cc2ccc([N+](=O)[O-])cc2)n[nH]c1=O | > 100 | > 100 | > 100 | > 100 | > 100 | > 100 | > 100 | > 100 | > 100 | > 100 | > 100 | –
10 | Cn1c2ccccc2c(=O)c2cccc(C(=O)NC(CCC(N)=O)C(=O)O)c21 (centres undefined) | > 100 | > 100 | > 100 | > 100 | > 100 | > 100 | > 100 | > 100 | > 100 | > 100 | > 100 | –
11 | CO/N=C(\C)CCC#Cc1ccccc1C(=O)OC | > 10 | > 10 | > 10 | > 10 | > 10 | > 10 | > 10 | > 10 | > 10 | > 10 | > 10 | –
12 | COC(=O)C(CCSC)NC(=O)Cc1ccc(C(=O)c2ccccc2)cc1 (centres undefined) | > 100 | > 100 | > 100 | > 100 | > 100 | > 100 | > 100 | > 100 | > 100 | > 100 | > 100 | –
13 | COc1ccccc1C(=O)c1c(NCc2ccccc2)c(=O)c1=O | > 100 | > 100 | > 100 | > 100 | > 100 | > 100 | > 100 | > 100 | > 100 | > 100 | > 100 | –
